Experimental data published in patent EP4186500A1, “MEK INHIBITORS FOR THE PREVENTION AND TREATMENT OF LONG COVID SYNDROME” (Atriva Therapeutics GmbH, priority 2021, dated 2023).

Columns and labels:
Calu-3 cells = assay: Cytotoxicity evaluation in Calu-3 cells; assay type: cell-based, Homo sapiens; settings: 72 h treatment
Description: In a next step, Calu-3 cells were incubated with increasing amounts of ATR-002 over 24, 48 or 72 hours. Specifically, Calu-3 cells were infected with SARS-CoV-2 (FI) using a MOI of 0.01. 1 h.p.i. cells were treated with ATR-002. Mock, SARS-CoV-2 and DMSO served as controls. […] Untreated (SARS-CoV-2) and DMSO (0.1 %) treated cells served as negative controls. Data represents means ± SD of three independent experiments, each performed in triplicates. Data passed a one-way ANOVA followed by Dunnett's multiple comparison test (^∗∗ p≤0.0021; ^∗∗∗ p≤0,0002; ^∗∗∗∗ p≤0.0001) for each time point separately. DMSO was used as reference. […] Data in combination with (C) was used to calculate the CC50 value and the selectivity index (SI). […] Data represent means ± SD of three independent experiments.

[1] = test system: cytokine & chemokine gene expression; assay: Acute lung injury (ALI) mouse model, LPS induced cytokine and chemokine gene expression; assay type: in vivo; settings: 5mg/kg LPS i.p.; 25 mg/kg ATR-002 i.p. one hour post stimulation; 6h post treatment
[2] = test system: IL-6, IL-8, MCP-1, IP-10 and CCL5 mRNA; assay: Pro-inflammatory cytokine mRNA expression in SARS-CoV-2 infected Calu-3 cells (real-time PCR); assay type: cell-based, Homo sapiens; settings: SARS-CoV-2 (FI) MOI 0.01, increasing amounts of ATR-002
VSV ΔG/GFP-Luc+SΔ21 = assay type: cell-based
SARS-CoV-2 [3] = assay type: cell-based, Severe acute respiratory syndrome coronavirus; settings: CaCo-2 cells, MOI 0.1; 50 and 100 µM ATR-002; 24h
SARS-CoV-2 [4] = assay: SARS-CoV-2 Syrian hamster infection model; settings: for reduction of progeny virus in throat swabs (TCID50 assay): 100mg/kg loading dose then 75mg/kg daily, oral; for reduction of progeny virus in throat swabs (TCID50 assay) / reduction of viral load in throat swabs (PCR): day 3 p.i.
SARS-CoV-2 (FI) = assay type: cell-based, Severe acute respiratory syndrome coronavirus
pERK1/2 = assay: Wes analysis of ERK phosphorylation in SARS-CoV-2 infected Caco-2 cells; assay type: cell-based, Homo sapiens; settings: CaCo-2 cells infected SARS-CoV-2 (MOI 0.1); 50 and 100 µM ATR-002; 24h
Description: For the Virus yield reduction assay a 24-well plate (Greiner Bio-One, Cat. 662-160) with 95% confluent Caco-2 cells was prepared. The wells were washed once with Caco-2 infection medium DMEM (Gibco, Cat. 41965-039) supplemented with 5% FCS (Capricorn, Cat. FBS-12A), 1% Penicillin/Streptomycin, (Sigma Aldrich, Cat. P4333) and 1% Non-essential amino acids (NEAA) (Merck, Cat. K 0293). Cells were infected with SARS-CoV-2 (MOI 0.1) for 1h in 200µL Caco-2 infection medium per well. Afterwards the Virus inoculum was removed completely and cells were treated with 1mL per well with different concentrations of ATR-002 (100µM, 50µM, 25µM, 12.5µM, 6.25µM, 3.125µM, 1.56µM, 0.78µM, 0.39µM, 0.195µM, 0.098µM, 0µM) in Caco-2 infection medium with 1% DMSO for 24h at 37°C, 5% CO2. […]
Wes™ capillary electrophoresis by ProteinSimple® was used to identify and quantify pERK1/2, ERK1/2 and SARS-CoV-2 Nucleoprotein. Cell lysates were diluted with 0.1X Sample Buffer (ProteinSimple, Abingdon, Oxford, UK) to approximately 50ng total protein per lane and analyzed using specific antibodies. […] The anti-rabbit secondary antibody (ProteinSimple, Cat. DM-001) and anti-mouse secondary antibody (ProteinSimple, Cat. DM-002) and all other reagents for WES analysis were also purchased from ProteinSimple and were ready to use.

[5] = test system: IP10, TNF-alpha and MCP-1; assay: Cytokine/chemokine expression in LPS induced PBMC
MxA and IL8 mRNA = MxA and IL8 mRNA expression in poly (I:C) transfected A549 cells; assay type: cell-based, Homo sapiens; settings: 100 ng/ml poly (I:C), 24 hours
[6] = LPS induced PMBC cells, 10µg/ml ATR-002

O=C(O)c1ccc(F)c(F)c1Nc1ccc(I)cc1Cl [ATR-002, 2-(2-chloro-4-iodophenylamino)-N-3,4-difluoro benzoic acid]
Cytotoxicity (Calu-3 cells): non-toxic concentration range | IL-1beta gene expression in lung [1]: decrease | IL-8 gene expression in lung [1]: decrease | IP-10 gene expression in lung [1]: decrease | MCP-1 gene expression in lung [1]: decrease | MIP-1beta gene expression in lung [1]: decrease | TNF-alpha gene expression in lung [1]: decrease | expression of pro-inflammatory cytokines (IL-6, IL-8, MCP-1, IP-10 and CCL5 mRNA) [2]: reduce the expression of pro-inflammatory cytokines | internalization of the VSV pseudotype virus (GFP-positive cells) (VSV ΔG/GFP-Luc+SΔ21): reduction in the internalization of the VSV pseudotype virus | SARS-CoV-2 virus titer (SARS-CoV-2 [3]): inhibition | nucleocapsid protein (SARS-CoV-2 [3]): inhibition | tolerability, weight loss, adverse effects (SARS-CoV-2 [4]; both treatment groups compared to vehicle group): well tolerated without significant weight loss | alveolar haemorrhage, oedema and type II pneumocyte hyperplasia (SARS-CoV-2 [4]; histopathology 4 days post infection, treated at days 1, 2, and 3 post infection): no haemorrhage, oedema and type II pneumocyte hyperplasia | score in alveolitis (SARS-CoV-2 [4]; histopathology 4 days post infection, treated at days 1, 2, and 3 post infection, vehicle score 3): 1 | reduction of progeny virus in throat swabs (TCID50 assay) (SARS-CoV-2 [4]; treated 4 hours p.i.): 1.1 log10 | reduction of viral load in throat swabs (PCR) (SARS-CoV-2 [4]; treated 4 hours p.i.): 1.1 log10 | reduction of progeny virus in throat swabs (TCID50 assay) (SARS-CoV-2 [4]; treated 24 hours p.i.): 1.3 log10 | reduction of viral load in throat swabs (PCR) (SARS-CoV-2 [4]; treated 24 hours p.i.): 1.2 log10 | percentage of affected lung area (SARS-CoV-2 [4]; treatment 4 hours p.i., day 4 p.i., P=0.0282): significantly reduced affected lung tissue | percentage of affected lung area (SARS-CoV-2 [4]; treatment 24 hours p.i., day 4 p.i., P=0.0314): significantly reduced affected lung tissue | reduction in infectious virus titers (TCID50/g tissue) in the nasal turbinates (SARS-CoV-2 [4]; treatment start 4 hours p.i., day 4 p.i.): 1.3 log10 | reduction of viral load in the nasal turbinates (PCR) (SARS-CoV-2 [4]; treatment started 4 hours p.i., day 4 p.i.): 1.1 log10 | infectious virus titers in the nasal turbinates (SARS-CoV-2 [4]; treatment started 24 hours p.i., day 4 p.i.): not the treatment started 24 hours p.i., significantly reduced infectious virus titers | cell damage of infected cells (light microscopy) (SARS-CoV-2 (FI); Calu-3 cells infected with SARS-CoV-2, Figure 6 D): did not show the characteristic cell damage | production of progeny viral particles (SARS-CoV-2 (FI); Calu-3 cells, MOI 0.01, ATR-002 10 - 150 µM, 24, 48 or 72 hours): concentration dependent decrease in the production of progeny viral particles | ERK-phosphorylation (pERK1/2): inhibition | inhibition at 10 µg/mL ([5]; Homo sapiens, PBMC, read-out: inhibition of LPS induced MCP-1): > 90% | IP10 expression [5, 6]: reduced | MCP-1 expression [5, 6]: reduced | TNF-alpha expression [5, 6]: reduced | MxA mRNA expression (anti-viral interferon system) (MxA and IL8 mRNA): did not affect the stimulation of the anti-viral interferon system | expression of pro-inflammatory IL8 (MxA and IL8 mRNA; even with low concentrations): strong reduction
